Measurements taken from PubChem BioAssay (NCI).
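Compound exposure: 48 hours, 5 concentrations, 96-well plates. The concentration for 50% growth inhibition is given as GI50. Definition used: TGI = concentration required for complete inhibition of growth.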

How the values were obtained:
Experiment in all cases: NCI tumour cell line growth inhibition, 48 h
786-0 renal = test system: 786-0 renal
A549 NSCLC = test system: A549 NSCLC
ACHN renal = test system: ACHN renal
CAKI-1 renal = test system: CAKI-1 renal
CCRF-CEM leukemia = test system: CCRF-CEM leukemia
COLO 205 colon = test system: COLO 205 colon
DU-145 prostate = test system: DU-145 prostate
EKVX NSCLC = test system: EKVX NSCLC
HCC-2998 colon = test system: HCC-2998 colon
HCT-116 colon = test system: HCT-116 colon
HCT-15 colon = test system: HCT-15 colon
HOP-62 NSCLC = test system: HOP-62 NSCLC
HOP-92 NSCLC = test system: HOP-92 NSCLC
HS 578T breast = test system: HS 578T breast
HT29 colon = test system: HT29 colon
IGROV1 ovarian = test system: IGROV1 ovarian
K-562 leukemia = test system: K-562 leukemia
KM12 colon = test system: KM12 colon
LOX IMVI melanoma = test system: LOX IMVI melanoma
M14 melanoma = test system: M14 melanoma
MALME-3M melanoma = test system: MALME-3M melanoma
MCF7 breast = test system: MCF7 breast
MDA-MB-231 breast = test system: MDA-MB-231 breast
MDA-MB-435 = test system: MDA-MB-435
MOLT-4 leukemia = test system: MOLT-4 leukemia
NCI-H226 lung = test system: NCI-H226 lung
NCI-H23 lung = test system: NCI-H23 lung
NCI-H460 lung = test system: NCI-H460 lung
NCI/ADR-RES ovarian = test system: NCI/ADR-RES ovarian
OVCAR-3 ovarian = test system: OVCAR-3 ovarian
OVCAR-4 ovarian = test system: OVCAR-4 ovarian
OVCAR-5 ovarian = test system: OVCAR-5 ovarian
OVCAR-8 ovarian = test system: OVCAR-8 ovarian
PC-3 prostate = test system: PC-3 prostate
RPMI-8226 leukemia = test system: RPMI-8226 leukemia
SF-268 CNS = test system: SF-268 CNS
SF-295 CNS = test system: SF-295 CNS
SK-MEL-2 melanoma = test system: SK-MEL-2 melanoma
SK-MEL-28 melanoma = test system: SK-MEL-28 melanoma
SK-MEL-5 melanoma = test system: SK-MEL-5 melanoma
SK-OV-3 ovarian = test system: SK-OV-3 ovarian
SN12C renal = test system: SN12C renal
SNB-19 CNS = test system: SNB-19 CNS
SR leukemia = test system: SR leukemia
SW-620 colon = test system: SW-620 colon
T-47D breast = test system: T-47D breast
TK-10 renal = test system: TK-10 renal
U251 CNS = test system: U251 CNS
UACC-257 melanoma = test system: UACC-257 melanoma
UACC-62 melanoma = test system: UACC-62 melanoma
UO-31 renal = test system: UO-31 renal

Question: With `CCOC(=O)c1cc(C#N)c(=O)n(/N=C(\C)c2ccncc2)c1O` as the compound, how does the GI50 (786-0 renal) read?
Answer: > 100 µM

Question: What about the TGI (786-0 renal) of the same compound?
Answer: > 100 µM

Question: What about the GI50 (A549 NSCLC) of the same compound?
Answer: > 100 µM

Question: And the TGI (A549 NSCLC)?
Answer: > 100 µM

Question: And the GI50 (ACHN renal)?
Answer: > 100 µM

Question: And the TGI (ACHN renal)?
Answer: > 100 µM

Question: What about the GI50 (CAKI-1 renal) of the same compound?
Answer: > 100 µM

Question: What about the TGI (CAKI-1 renal) of the same compound?
Answer: > 100 µM

Question: What about the GI50 (CCRF-CEM leukemia) of the same compound?
Answer: > 100 µM

Question: What about the TGI (CCRF-CEM leukemia) of the same compound?
Answer: > 100 µM

Question: What about the GI50 (COLO 205 colon) of the same compound?
Answer: > 100 µM

Question: And the TGI (COLO 205 colon)?
Answer: > 100 µM

Question: And the GI50 (DU-145 prostate)?
Answer: > 100 µM

Question: What about the TGI (DU-145 prostate) of the same compound?
Answer: > 100 µM

Question: What about the GI50 (EKVX NSCLC) of the same compound?
Answer: > 100 µM

Question: And the TGI (EKVX NSCLC)?
Answer: > 100 µM

Question: And the GI50 (HCC-2998 colon)?
Answer: > 100 µM

Question: What about the TGI (HCC-2998 colon) of the same compound?
Answer: > 100 µM

Question: What about the GI50 (HCT-116 colon) of the same compound?
Answer: > 100 µM

Question: What about the TGI (HCT-116 colon) of the same compound?
Answer: > 100 µM

Question: And the GI50 (HCT-15 colon)?
Answer: > 100 µM

Question: And the TGI (HCT-15 colon)?
Answer: > 100 µM

Question: What about the GI50 (HOP-62 NSCLC) of the same compound?
Answer: > 100 µM

Question: And the TGI (HOP-62 NSCLC)?
Answer: > 100 µM

Question: What about the GI50 (HOP-92 NSCLC) of the same compound?
Answer: > 100 µM

Question: And the TGI (HOP-92 NSCLC)?
Answer: > 100 µM

Question: And the GI50 (HS 578T breast)?
Answer: > 100 µM

Question: And the TGI (HS 578T breast)?
Answer: > 100 µM

Question: What about the GI50 (HT29 colon) of the same compound?
Answer: > 100 µM

Question: And the TGI (HT29 colon)?
Answer: > 100 µM

Question: What about the GI50 (IGROV1 ovarian) of the same compound?
Answer: > 100 µM

Question: And the TGI (IGROV1 ovarian)?
Answer: > 100 µM

Question: What about the GI50 (K-562 leukemia) of the same compound?
Answer: > 100 µM

Question: What about the TGI (K-562 leukemia) of the same compound?
Answer: > 100 µM

Question: What about the GI50 (KM12 colon) of the same compound?
Answer: > 100 µM

Question: What about the TGI (KM12 colon) of the same compound?
Answer: > 100 µM

Question: And the GI50 (LOX IMVI melanoma)?
Answer: > 100 µM

Question: And the TGI (LOX IMVI melanoma)?
Answer: > 100 µM

Question: What about the GI50 (M14 melanoma) of the same compound?
Answer: > 100 µM

Question: And the TGI (M14 melanoma)?
Answer: > 100 µM

Question: And the GI50 (MALME-3M melanoma)?
Answer: > 100 µM

Question: What about the TGI (MALME-3M melanoma) of the same compound?
Answer: > 100 µM

Question: What about the GI50 (MCF7 breast) of the same compound?
Answer: > 100 µM

Question: What about the TGI (MCF7 breast) of the same compound?
Answer: > 100 µM

Question: And the GI50 (MDA-MB-231 breast)?
Answer: > 100 µM

Question: And the TGI (MDA-MB-231 breast)?
Answer: > 100 µM

Question: And the GI50 (MDA-MB-435)?
Answer: > 100 µM

Question: And the TGI (MDA-MB-435)?
Answer: > 100 µM

Question: And the GI50 (MOLT-4 leukemia)?
Answer: > 100 µM

Question: And the TGI (MOLT-4 leukemia)?
Answer: > 100 µM

Question: What about the GI50 (NCI-H226 lung) of the same compound?
Answer: > 100 µM

Question: What about the TGI (NCI-H226 lung) of the same compound?
Answer: > 100 µM

Question: And the GI50 (NCI-H23 lung)?
Answer: > 100 µM

Question: What about the TGI (NCI-H23 lung) of the same compound?
Answer: > 100 µM

Question: What about the GI50 (NCI-H460 lung) of the same compound?
Answer: > 100 µM

Question: And the TGI (NCI-H460 lung)?
Answer: > 100 µM

Question: What about the GI50 (NCI/ADR-RES ovarian) of the same compound?
Answer: > 100 µM

Question: And the TGI (NCI/ADR-RES ovarian)?
Answer: > 100 µM

Question: And the GI50 (OVCAR-3 ovarian)?
Answer: > 100 µM

Question: What about the TGI (OVCAR-3 ovarian) of the same compound?
Answer: > 100 µM

Question: What about the GI50 (OVCAR-4 ovarian) of the same compound?
Answer: > 100 µM

Question: And the TGI (OVCAR-4 ovarian)?
Answer: > 100 µM

Question: And the GI50 (OVCAR-5 ovarian)?
Answer: > 100 µM

Question: And the TGI (OVCAR-5 ovarian)?
Answer: > 100 µM

Question: And the GI50 (OVCAR-8 ovarian)?
Answer: > 100 µM

Question: What about the TGI (OVCAR-8 ovarian) of the same compound?
Answer: > 100 µM

Question: And the GI50 (PC-3 prostate)?
Answer: > 100 µM

Question: What about the TGI (PC-3 prostate) of the same compound?
Answer: > 100 µM

Question: What about the GI50 (RPMI-8226 leukemia) of the same compound?
Answer: > 100 µM

Question: And the TGI (RPMI-8226 leukemia)?
Answer: > 100 µM

Question: What about the GI50 (SF-268 CNS) of the same compound?
Answer: > 100 µM

Question: What about the TGI (SF-268 CNS) of the same compound?
Answer: > 100 µM

Question: What about the GI50 (SF-295 CNS) of the same compound?
Answer: > 100 µM

Question: What about the TGI (SF-295 CNS) of the same compound?
Answer: > 100 µM

Question: What about the GI50 (SK-MEL-2 melanoma) of the same compound?
Answer: > 100 µM

Question: And the TGI (SK-MEL-2 melanoma)?
Answer: > 100 µM

Question: What about the GI50 (SK-MEL-28 melanoma) of the same compound?
Answer: > 100 µM

Question: And the TGI (SK-MEL-28 melanoma)?
Answer: > 100 µM

Question: And the GI50 (SK-MEL-5 melanoma)?
Answer: > 100 µM

Question: And the TGI (SK-MEL-5 melanoma)?
Answer: > 100 µM

Question: What about the GI50 (SK-OV-3 ovarian) of the same compound?
Answer: > 100 µM

Question: And the TGI (SK-OV-3 ovarian)?
Answer: > 100 µM

Question: And the GI50 (SN12C renal)?
Answer: > 100 µM

Question: And the TGI (SN12C renal)?
Answer: > 100 µM

Question: And the GI50 (SNB-19 CNS)?
Answer: > 100 µM

Question: And the TGI (SNB-19 CNS)?
Answer: > 100 µM

Question: And the GI50 (SR leukemia)?
Answer: > 100 µM

Question: What about the TGI (SR leukemia) of the same compound?
Answer: > 100 µM

Question: And the GI50 (SW-620 colon)?
Answer: > 100 µM

Question: What about the TGI (SW-620 colon) of the same compound?
Answer: > 100 µM

Question: What about the GI50 (T-47D breast) of the same compound?
Answer: > 100 µM

Question: What about the TGI (T-47D breast) of the same compound?
Answer: > 100 µM

Question: And the GI50 (TK-10 renal)?
Answer: > 100 µM

Question: And the TGI (TK-10 renal)?
Answer: > 100 µM

Question: And the GI50 (U251 CNS)?
Answer: > 100 µM

Question: What about the TGI (U251 CNS) of the same compound?
Answer: > 100 µM

Question: And the GI50 (UACC-257 melanoma)?
Answer: > 100 µM

Question: And the TGI (UACC-257 melanoma)?
Answer: > 100 µM

Question: What about the GI50 (UACC-62 melanoma) of the same compound?
Answer: > 100 µM

Question: What about the TGI (UACC-62 melanoma) of the same compound?
Answer: > 100 µM

Question: And the GI50 (UO-31 renal)?
Answer: > 100 µM

Question: What about the TGI (UO-31 renal) of the same compound?
Answer: > 100 µM
